Laboratory results published in patent US5827860A, “Peptidyl heterocycles useful in the treatment of thrombin related disorders” (Ortho Pharmaceutical Corporation, priority 1995, dated 1998).

Assay: Ex vivo bioavailability assay, drug administered i.v. and p.o.
Conditions: male rats, p.o. vs i.v., drug in plasma extrapolated from thrombin inhibition
Method: Bioavailability was determined by an ex vivo assay which incorporated hydrolysis rates from drug administered both i.v. and p.o. In this assay male rats were prepared as described above with a teflon tube implanted in their femoral artery.
A standard curve was generated by adding of drug or vehicle (100 μL) to whole blood (900 μL) followed by incubating (5 min) and centrifuging to obtain plasma. The percentage of thrombin inhibition was calculated by comparing the V0 of the vehicle to that of the drug treated samples. Datum from several runs were normalized with a statistical package (SAS) to generate a standard curve.
The percentage of thrombin inhibition in the treated animals was calculated by comparing the V0 prior to treatment with the V0 obtained from samples collected after treatment. The percent inhibition was applied to the standard curve (generated above) using the statistical package (SAS) and the quantity of drug in the sample was extrapolated.
Bioavailability (Bioavail.) was calculated from the plots of the extrapolated drug in sample vs. time for both i.v. and p.o. administration using the following equation:
%Bioavail.=(i.v. dose administered/p.o. dose administered)×(area
under p.o. curve/area under curve i.v.)

Compound `CN[C@H](Cc1ccccc1)C(=O)N1CCC[C@H]1C(=O)N[C@@H](CCCNC(=N)N)C(=O)c1nc2ccccc2s1` [Compound 1, N-METHYL-D-PHENYLALANYL-N-[4-[(AMINOIMINOMETHYL)AMINO]-1S-[(BENXOTHIAZOL-2- YL)CARBONYL]BUTYL]-L-PROLINAMIDE] has a Bioavail. of 1.2%.

Assay: Ex vivo assay for duration of action after i.v. dosing (time to half plasma elimination)
Conditions: male rats, from slope of V0 vs. time of plasma thrombin inhibition
Method: An ex vivo assay was conducted to determine the duration of action of the compounds of Formula I. For this i.v. assay male rats (Long Evans, 350-500 g) were implanted with a teflon cannulae via the femoral artery while under anesthesia (pentobarbital i.p., 35 mg/kg). […] The animals were allowed to recover for at least 24 h after the surgical procedure.
The test compound was dispersed in water and delivered to the animal (0.25 mL) via the femoral vein. […] A plasma sample was obtained by centrifuging the blood at 10,000 rpm for 5 min. This sample is analyzed for thrombin inhibition using the chromogenic assay, described below.
Datum was collected over a 30 min period and the initial rate of substrate hydrolysis (V0 (mOD/min)) was calculated with an analysis program (Softmax, Molecular Devices).
The time to half plasma elimination (t 1/2) was calculated from the slope of V0 vs. time, using the following equation: t 1/2=-1.6 slope.

Going from `CN[C@H](Cc1ccccc1)C(=O)N1CCC[C@H]1C(=O)N[C@@H](CCCNC(=N)N)C(=O)c1nc2ccc(O)cc2s1` [Compound 25] to `CNC(C(=O)N1CCC[C@H]1C(=O)N[C@@H](CCCNC(=N)N)C(=O)c1nc2ccccc2s1)c1ccccc1` (some centres unmarked) [Compound 34], the “t1/2 (time to half plasma elimination)” value rises from 14 min to 26 min (1.9-fold).

Assay: not given
Conditions: rat, in vivo, iv

`CN[C@H](Cc1ccccc1)C(=O)N1CCC[C@H]1C(=O)N[C@@H](CCCNC(=N)N)C(=O)c1nc2ccccc2s1` [Compound 1, N-METHYL-D-PHENYLALANYL-N-[4-[(AMINOIMINOMETHYL)AMINO]-1S-[(BENXOTHIAZOL-2- YL)CARBONYL]BUTYL]-L-PROLINAMIDE] and `CNC(C(=O)N1CCCC1C(=O)NC(CCCNC(=N)N)C(=O)c1nc2ccccc2s1)c1ccccc1` [Compound 33, N-METHYL-D-PHENYLGLYCYL-N-[4-[(AMINOIMINOMETHYL)AMINO]-1S-[(BENXOTHIAZOL-2- YL)CARBONYL]BUTYL]-L-PROLINAMIDE] are within 1.5-fold of each other in “t1/2 (time to half plasma elimination)” value: 19 min for the first, 18 min for the second.

`CNC(Cc1ccccc1)C(=O)N1CCCC1C(=O)NC(CCCNC(=N)N)C(=O)c1nccs1` (centres unmarked) [Compound 4] and `CN[C@H](Cc1ccccc1)C(=O)N1CCC[C@H]1C(=O)N[C@@H](CCCNC(=N)N)C(=O)c1nc(C(=O)O)cs1` [Compound 54] are within 1.5-fold of each other in “t1/2 (time to half plasma elimination)” value: 16 min for the first, 15 min for the second.

First: CN[C@H](Cc1ccccc1)C(=O)N1CCC[C@H]1C(=O)N[C@@H](CCCNC(=N)N)C(=O)c1nc2ccc(C(=O)OC)cc2s1 [Compound 12]
Second: CN[C@H](Cc1ccccc1)C(=O)N1CCC[C@H]1C(=O)N[C@@H](CCCNC(=N)N)C(=O)c1nc2ccc(C(=O)O)cc2s1 [Compound 13]
The “t1/2 (time to half plasma elimination)” value of the first is 1.7-fold higher: 43 min for the first, 25 min for the second.

Compared with `CN[C@H](Cc1ccccc1)C(=O)N1CCC[C@H]1C(=O)N[C@@H](CCCNC(=N)N)C(=O)c1nc2ccc(CO)cc2s1` [Compound 15], `CN[C@H](Cc1ccccc1)C(=O)N1CCC[C@H]1C(=O)N[C@@H](CCCNC(=N)N)C(=O)c1nc2ccc(F)cc2s1` [Compound 17] is 2-fold lower in “t1/2 (time to half plasma elimination)” value: 16 min for the first, 8 min for the second.

First: CCOC(=O)c1csc(C(=O)[C@H](CCCNC(=N)N)NC(=O)[C@@H]2CCCN2C(=O)[C@@H](Cc2ccccc2)NC)n1 [Compound 19]
Second: CNC(Cc1ccccc1)C(=O)N1CCCC1C(=O)NC(CCCNC(=N)N)C(=O)c1nc2ccccc2[nH]1 (centres unmarked) [Compound 21]
The “t1/2 (time to half plasma elimination)” value of the first is 2.8-fold higher: 14 min for the first, 5 min for the second.

Going from `CN[C@H](CC1CCCCC1)C(=O)N1CCC[C@H]1C(=O)N[C@@H](CCCNC(=N)N)C(=O)c1nc2ccccc2s1` [Compound 29, N-METHYL-D-CYCLOHEXYLALANYL-N-[4-[(AMINOIMINOMETHYL)AMINO]-1S-[(BENXOTHIAZOL-2-YL)CARBONYL]BUTYL]-L-PROLINAMIDE] to `CN[C@@H](C(=O)N1CCC[C@H]1C(=O)N[C@@H](CCCNC(=N)N)C(=O)c1nc2ccccc2s1)C1CCCCC1` [Compound 37, N-METHYL-D-CYCLOHEXYLGLYCYL-N-[4-[(AMINOIMINOMETHYL)AMINO]-1S-[(BENXOTHIAZOL-2-YL)CARBONYL]BUTYL]-L-PROLINAMIDE], the “t1/2 (time to half plasma elimination)” value rises from 14 min to 42 min (3-fold).

Compared with `CN[C@H](Cc1c(F)c(F)c(F)c(F)c1F)C(=O)N1CCC[C@H]1C(=O)N[C@@H](CCCNC(=N)N)C(=O)c1nc2ccccc2s1` [Compound 30], `CN[C@H](Cc1ccc(F)cc1)C(=O)N1CCC[C@H]1C(=O)N[C@@H](CCCNC(=N)N)C(=O)c1nc2ccccc2s1` [Compound 32, N-METHYL-D-(4-FLUOROPHENYL)ALANYL-N-[4-[(AMINOIMINOMETHYL)AMINO]-1S-[(BENXOTHIAZOL-2-YL)CARBONYL]BUTYL]-L-PROLINAMIDE] is 3.2-fold higher in “t1/2 (time to half plasma elimination)” value: 6 min for the first, 19 min for the second.

First: CC(=O)N[C@H](Cc1ccccc1)C(=O)N1CCC[C@H]1C(=O)N[C@@H](CCCNC(=N)N)C(=O)c1nc2ccccc2s1.O=C(O)C(F)(F)F [Compound 35]
Second: CN[C@H](Cc1ccccc1)C(=O)N1CCC[C@H]1C(=O)N[C@@H](CCCNC(=N)N)C(=O)c1nc2ccc3ccccc3c2s1 [Compound 52]
The “t1/2 (time to half plasma elimination)” value of the first is 2.2-fold higher: 11 min for the first, 5 min for the second.

In the case of `CN[C@H](Cc1ccccc1)C(=O)N1CCC[C@H]1C(=O)N[C@@H](CCCNC(=N)N)C(=O)c1nc2c(s1)CCCC2` [Compound 51], the “t1/2 (time to half plasma elimination)” value was 17 min.
